Experimental data from patent publication US7928225B2, “Oxabispidine compounds for the treatment of cardiac arrhythmias” (AstraZeneca AB, priority 2005, dated 2011).

Key:
HERG channel = target: T1, HERG channel (Homo sapiens, UniProt Q12809); test: Test B: Rb+-efflux assay for detection of HERG channel blockers; assay type: cell-based; conditions: depolarisation-induced Rb+-efflux from Chinese hamster ovary cells stably expressing the HERG-channel
T1 construct: expressed in transfected cells
Procedure: Rb^+-Efflux Assay for Detection of HERG Channel Blockers
The human ether-a-go-go related gene (HERG) encodes the voltage-gated K^+ channel underlying the cardiac rapid delayed rectifier current IKr. The IC50 value for HERG channel blockade was determined using a high throughput functional assay based on depolarisation-induced Rb^+-efflux from Chinese hamster ovary cells stably expressing the HERG-channel.
Cells were grown in Ham F12 (Life Technologies 31765-027) supplemented with 10% FBS and 0.6 mg/mL hygromycin B and were routinely passaged twice-weekly. For experimental studies, cells were plated at a density of 15,000 cells/well in Falcon, 384-well tissue culture-treated black-walled clear-bottomed plates and were thereafter incubated overnight at 37° C. in a cell culture incubator.
Following incubating overnight, cell plates were washed and a Rb^+-Load buffer (a physiological buffer containing Rb^+) was added. Cell plates were then incubated for 3 hours and were thereafter washed. Following this wash, the test compounds were added. The cell plates were then incubated for another 10 minutes and, following this incubation period, external K^+ concentration was increased in order to depolarize the cells and activate HERG channels. […]
Compound activity was expressed as: […]

[1] = tested on: anaesthetised guinea pigs; test: Test A: Primary electrophysiological effects in anaesthetised guinea pigs (MAP duration); assay type: in vivo, guinea pig; conditions: infusion into jugular vein, MAP duration at 75 percent repolarization during pacing, from mean dose-response curve
Procedure: Primary Electrophysiological Effects in Anaesthetised Guinea Pigs
Guinea pigs weighing between 500 and 1000 g were used. The animals were housed for at least one week before the experiment and had free access to food and tap water during that period.
Anaesthesia was induced by an intraperitoneal injection of pentobarbital (50 to 60 mg/kg) and catheters were introduced into one carotid artery (for blood pressure recording and blood sampling) and into one jugular vein (for drug infusions). Needle electrodes were placed on the limbs for recording of ECGs (lead II). […]
The left ventricular epicardium was exposed by a left-sided thoracotomy, and a custom-designed suction electrode for recording of the monophasic action potential (MAP) was applied to the left ventricular free wall. The electrode was kept in position as long as an acceptable signal could be recorded, otherwise it was moved to a new position. […]
Of the numerous variables measured in this analysis, three were selected as the most important for comparison and selection of active compounds. […] Systolic and diastolic blood pressure were measured in order to judge the haemodynamic status of the anaesthetised animal. […]
The mean of the two control recordings was set to zero and the effects recorded after consecutive doses of test substance were expressed as percentage changes from this value. […]

T1 sequence (Q12809 whole entry): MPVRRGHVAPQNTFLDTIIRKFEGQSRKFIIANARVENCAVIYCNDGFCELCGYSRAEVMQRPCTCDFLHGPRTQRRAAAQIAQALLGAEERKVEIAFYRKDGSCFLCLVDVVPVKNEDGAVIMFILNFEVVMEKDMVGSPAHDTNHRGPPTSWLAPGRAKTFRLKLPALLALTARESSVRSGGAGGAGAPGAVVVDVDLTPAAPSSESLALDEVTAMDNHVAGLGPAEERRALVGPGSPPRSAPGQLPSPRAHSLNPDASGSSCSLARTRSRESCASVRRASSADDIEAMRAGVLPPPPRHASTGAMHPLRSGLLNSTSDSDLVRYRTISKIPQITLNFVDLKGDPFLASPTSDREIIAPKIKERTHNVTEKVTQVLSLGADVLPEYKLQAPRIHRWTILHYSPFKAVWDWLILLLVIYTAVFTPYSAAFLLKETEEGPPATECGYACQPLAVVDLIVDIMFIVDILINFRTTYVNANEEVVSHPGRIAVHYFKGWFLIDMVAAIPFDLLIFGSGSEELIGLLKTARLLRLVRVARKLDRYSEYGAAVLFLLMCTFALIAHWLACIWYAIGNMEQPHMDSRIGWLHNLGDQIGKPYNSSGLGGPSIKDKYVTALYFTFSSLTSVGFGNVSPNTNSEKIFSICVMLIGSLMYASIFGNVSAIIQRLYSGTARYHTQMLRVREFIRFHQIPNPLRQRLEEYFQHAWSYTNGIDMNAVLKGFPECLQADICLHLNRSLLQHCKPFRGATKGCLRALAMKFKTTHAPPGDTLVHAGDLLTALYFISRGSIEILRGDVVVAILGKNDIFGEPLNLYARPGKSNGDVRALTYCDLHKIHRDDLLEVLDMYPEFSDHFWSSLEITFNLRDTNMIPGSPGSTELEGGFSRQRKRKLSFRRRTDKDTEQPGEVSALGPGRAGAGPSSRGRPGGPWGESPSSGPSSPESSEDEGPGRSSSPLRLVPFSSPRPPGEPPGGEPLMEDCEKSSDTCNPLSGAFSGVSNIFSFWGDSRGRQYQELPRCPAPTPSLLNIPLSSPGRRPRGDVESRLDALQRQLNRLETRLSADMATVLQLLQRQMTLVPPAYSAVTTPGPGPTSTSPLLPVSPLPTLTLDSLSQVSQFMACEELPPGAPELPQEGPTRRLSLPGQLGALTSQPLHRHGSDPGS

SMILES | pIC50 for HERG channel blockade (HERG channel) | D10 (cumulative dose prolonging the MAP duration by 10% from the baseline; index of class III electrophysiological potency) [1]
CC(C)(C)OC(=O)NCCN1CC2CN(CCOc3ccc(C#N)cc3F)CC(C1)O2 [Example 2, tert-Butyl (2-{7-[2-(4-cyano-2-fluorophenoxy)ethyl]-9-oxa-3,7-diazabicyclo-[3.3.1]non-3-yl}ethyl)carbaamate] | 5.0 | 6.3
CC(C)(C)OC(=O)NCCCN1CC2CN(CCCOc3ccc(C#N)cc3)CC(C1)O2 [Example 5] | 6.19 | 6.8
